# Legend:
# [1] = UV absorption and fluorescence spectra in solution; format: physicochemical; settings: for absorption maximum (abs.) / emission maximum (em.): in MeOH, approximate, comparison
# [2] = Preparative photolysis in methanol, light >320 nm; format: physicochemical; settings: MeOH, under N2, ambient temperature
# Protocol: Diazoketone 10 was subjected to photolysis in methanol in order to study the product distribution. Light with wavelengths >320 nm was used. The result of this experiment is presented in Scheme 6.
# NMR spectra were recorded with Varian MERCURY 300 spectrometer at 300 (^1H) and 75.5 MHz (^13C and APT). All spectra are referenced to tetramethylsilane as an internal standard (δ=0 ppm) using the signals of the residual protons of CHCl3 (7.26 ppm) in CDCl3, CHD2OD (3.31 ppm) in CD3OD, HOD (4.79 ppm) in D2O or [D5] DMSO (2.50 ppm) in [D6] DMSO. Multiplicities of signals are described as follows: s=singlet, br. s=broad singlet, d=doublet, br. d=broad doublet, t=triplet, q=quartet, m=multiplet. Coupling constants (J) are given in Hz. Multiplicities in the ^13C NMR spectra were determined by APT (Attached Proton Test) measurements. […] Analytical TLC was performed on MERCK ready-to-use plates with silica gel 60 (F254). […]
# Photolysis of diazoketone 10: A solution of compound 10 (70 mg, 0.15 mmol) in MeOH (150 mL) was placed into a reactor for photolysis, and nitrogen was bubbled for 30 min through the solution at room temperature with stirring. Then the lamp was turned on, and the reaction mixture was irradiated at ambient temperature with stirring under N2 for 40 min, until the starting compound could not be detected on TLC. […]
compound,measurement,setting,value
5/6-carboxy rhodamine Q,absorption maximum (abs.),[1],ca. 540 nm
same,emission maximum (em.),[1],about 560 nm
CCN(CC)c1ccc2c(c1)Oc1cc(N(CC)CC)ccc1C21C(=[N+]=[N-])C(=O)c2ccccc21 [Compound 10],UV λmax,[1]; MeCN,241 nm
same,ε at λmax,[1]; MeCN,59700
same,irradiation time until starting compound could not be detected,[2],40 min
"CN(C)c1ccc2c(-c3ccccc3C(=O)[O-])c3ccc(N(C)C)cc3[o+]c2c1 [TMR, N,N,N′,N′-Tetramethylrhodamine]",absorption maximum (abs.),[1],about 560 nm
same,emission maximum (em.),[1],ca. 580 nm
"CCN(CC)c1ccc2c(-c3ccccc3C(=O)O)c3ccc(=[N+](CC)CC)cc-3oc2c1.[Cl-] [rhodamine B, Rhodamine B]",absorption maximum (abs.),[1],about 560 nm
same,emission maximum (em.),[1],ca. 580 nm

# — patent publication US8617827B2, “Photoactivable fluorescent dyes for optical microscopy and imaging techniques” (Max-Planck-Gesellschaft zur Foerderung der Wissenschaften …, priority 2009, dated 2013)
